Results published in patent US3968219A, “Hydroxy phenylbutazone derivatives and their preparation” (Schering Aktiengesellschaft, priority 1974, dated 1976).

How the values were obtained:
[1] = system: right ear of male rats (edema); test: Edema test, Tonelli method (croton oil ear edema); assay type: in vivo; conditions: in pyridine/water/ether/croton oil irritant, 3 hours after application
Experimental: The anti-inflammatory activity of the novel hydroxyphenylbutazone derivatives upon topical application can also be determined in accordance with the Tonelli method, as follows:
The compound to be tested is dissolved in an irritant consisting of 4 parts of pyridine, 1 part of distilled water, 5 parts of ether, and 10 parts of a 4% ether croton oil solution. Felt strips attached to the insides of a slide tweezers are saturated with this text solution and pressed under slight pressure for 15 seconds onto the right ear of male rats weighing 100-160 g.
The left ear remains untreated and serves as control. Three hours after application, the animals are sacrificed and disks of a size of 9 mm. are punched out of their ears. The weight difference between the disk from the right ear and that of the left ear is a measure for the thus-formed edema.
The concentrations of effective agent (ED50) are determined which, when employed, cause a 50% reduction in the formation of edema.

[2] = system: stripped skin on the backs of volunteers; test: vasoconstriction test (topical anti-inflammatory activity on stripped, hyperemic skin); assay type: in vivo; conditions: for vasoconstriction, colour value (normal skin = 100, untreated stripped skin = 0): 50 mg topical; for activity in vasoconstriction test compared with hydroxyphenylbutazone: topical, Table I, in words
Experimental: The topical anti-inflammatory activity of the novel hydroxyphenylbutazone derivatives can be determined employing the conventional vasoconstriction test as follows: On the backs of volunteers for the experiment, the stratum corneum was abraded by the application and tearing off of adhesive tape, conducted 20 times at the same spot, thus producing a pronounced hyperemia. Within the stripped area, respectively 50 mg of ointment containing in each case 0.1% and 0.01%, respectively, of the substance to be tested or of the reference substance in a water-oil base was applied on marked areas. The extent of the vasoconstriction was determined one, four, and eight hours after application. In order to evaluate the vasoconstriction, which is a representative syndrome of topical anti-inflammatory activity the color values of the untreated stripped skin and the treated stripped skin were determined and compred with the color value of the normal skin, wherein the color value of the normal skin was set to be equal to 100 and the color value of the untreated stripped skin was fixed at 0. Minor, moderate, and high-grade vasoconstriction was evaluated with values between 0 and 100. The results are shown in Table I below in which two compounds of this invention (III, IV) were compated with hydroxyphenylbutazone (I) and fluorocortolone.

SMILES | ED50 (concentration causing 50% reduction in the formation of edema) [1] [µg/mL] | vasoconstriction, colour value (normal skin = 100, untreated stripped skin = 0) ([2]; 0.01% ointment, 1 hour) | vasoconstriction, colour value (normal skin = 100, untreated stripped skin = 0) ([2]; 0.01% ointment, 4 hours) | vasoconstriction, colour value (normal skin = 100, untreated stripped skin = 0) ([2]; 0.01% ointment, 8 hours) | vasoconstriction, colour value (normal skin = 100, untreated stripped skin = 0) ([2]; 0.1% ointment, 1 hour) | vasoconstriction, colour value (normal skin = 100, untreated stripped skin = 0) ([2]; 0.1% ointment, 4 hours) | vasoconstriction, colour value (normal skin = 100, untreated stripped skin = 0) ([2]; 0.1% ointment, 8 hours) | activity in vasoconstriction test compared with hydroxyphenylbutazone [2]
CCCCC1C(=O)N(c2ccccc2)N(c2ccc(O)cc2)C1=O (stereo not shown) [I, 4-Butyl-1-(4-hydroxyphenyl)-2-phenyl-3,5-pyrazolidinedione] | 8000 | 18 | 25 | 24 | 15 | 35 | 33 | 
C[C@@H]1C[C@H]2[C@@H]3C[C@H](F)C4=CC(=O)C=C[C@]4(C)[C@H]3[C@@H](O)C[C@]2(C)[C@H]1C(=O)CO [II, 6α-Fluoro-11β,21-dihydroxy-16α-methyl-1,4-pregnadiene-3,20-dione] | 3400 | 15 | 65 | 85 | 35 | 75 | 85 | 
CCCCC1C(=O)N(c2ccccc2)N(c2ccc(OC(=O)CCCCC(=O)Oc3ccc(N4C(=O)C(CCCC)C(=O)N4c4ccccc4)cc3)cc2)C1=O (stereo not shown) [III, Adipic Acid Bis[4-(4-butyl-3,5-dioxo-2-phenylpyrazolidinyl)-phenyl Ester]] | 2100 | 34 | 66 | 70 | 44 | 72 | 78 | substantially more active than hydroxyphenylbutazone
CCCCC1C(=O)N(c2ccccc2)N(c2ccc(OC(=O)CCCCCC(=O)Oc3ccc(N4C(=O)C(CCCC)C(=O)N4c4ccccc4)cc3)cc2)C1=O (stereo not shown) [IV, Pimelic Acid Bis[4-(4-butyl-3,5-dioxo-2-phenylpyrazolidinyl)-phenyl Ester]] | 4200 |  | 44 | 49 |  | 65 | 67 | substantially more active than hydroxyphenylbutazone
